This is an account of results in US20020132809A1, “Heterocyclic carboxamide derivatives as inhibitors of nitric oxide production” (Fujisawa Pharmaceutical Co. Ltd., priority 1998, published 2002).

One data set concerns rat cardiac allograft. Put plainly: Protective effect of the compound (a) combined with FK506 on rat cardiac allograft. Particulars: single-drug group: FK506 0.32 mg/kg, daily gastric intubation for 14 days; Lewis donor to ACI recipient heterotopic cardiac transplantation. In kind it is in vivo. On the procedure:
Test 2: Protective Effect of the Compound (a) Combined with FK 506 on Rat Cardiac Allograft
Experiments were performed on male Lewis and ACI rats weighing 175-200 g. Rats were anesthetized with sodium pentobarbital (50 mg/kg, i.p.), and underwent allogeneic (Lewis donor to ACI recipient) heterotopic intra-abdominal cardiac transplantation. Experimental groups were divided into single-drug group and combined-drug group. Single-drug dose of FK506, which was prepared in a manner similar to that disclosed in EP-0184162, was 0.32 mg/kg. Combined-drug dose was FK506 (0.32 mg/kg)+the compound (a) (10 mg/kg). The grafted hearts were monitored by daily palpation where complete rejection was defined as the cessation of palpable contractile activity. Each drug was suspended in a solution of 0.5% methylcellulose, and administered by daily gastric intubation in a volume of 5 ml/kg of body weight for 14 days.
The combination of the compound (a) and an immunosuppressive agent (FK506) was examined to determine whether it could improve rat cardiac allograft survival.

`CCCn1c(-c2ccc(-n3ccnc3)cc2)cnc1[C@H](Cc1ccccn1)N(C=O)c1cc2cc(Br)ccc2o1` [Example 44, (1S)-(5-Bromobenzo[b]furan-2-yl)-N-[1-[5-[4-(1-imidazolyl)phenyl]-1-propylimidazol-2-yl]-2-(2-pyridyl)ethyl]formamide] came in with a melting point of 93 to 99 °C. Take `CCn1c(-c2ccc(-n3ccnc3)cc2)cnc1[C@H](Cc1ccncc1)N(C=O)c1cc2ccccc2[nH]1` [Compound (e), (1S)-N-[1-[1-ethyl-5-[4-(1-imidazolyl)phenyl]imidazol-2-yl]-2-(4-pyridyl)ethyl](indol-2-yl)formamide]: the melting point was 255 to 260 °C (dec.). On the same count and under the same terms, the result for `Cn1c(-c2cccs2)cnc1[C@H](Cc1ccccn1)N(C=O)c1cc2cc(Cl)ccc2o1` [Example 20, (1S)-(5-Chlorobenzo[b]furan-2-yl)-N-[1-[1-methyl-5-(2-thienyl)-imidazol-2-yl]-2-(2-pyridyl)ethyl]formamide] reads 70 to 74 °C; that for `Cc1ccc2oc(N(C=O)[C@@H](Cc3ccccn3)c3ncc(-c4ccc(N5CCOCC5)cc4)n3C)cc2c1` [Example 5, (1S)-(5-Methylbenzo[b]furan-2-yl)-N-[1-[1-methyl-5-(4-morpholinophenyl)imidazol-2-yl]-2-(2-pyridyl)ethyl]formamide], 125 to 127 °C; that for `Cn1c(-c2ccc(-c3cccs3)cc2)cnc1[C@H](Cc1ccccn1)N(C=O)c1cc2cc(Cl)ccc2o1` [Example 17, (1S)-(5-Chlorobenzo[b]furan-2-yl)-N-[1-[1-methyl-5-[4-(2-thienyl)-phenyl]imidazol-2-yl]-2-(2-pyridyl)ethyl]formamide], 110 to 114 °C. The same measure, in the same setting: with `Cn1c(-c2ccc(-n3ccnc3)cc2)cnc1[C@H](Cc1ccccn1)N(C=O)c1cc2cc([N+](=O)[O-])ccc2s1` [Compound (d), (1S)-N-[1-[5-[4-(1-imidazolyl)phenyl]-1-methylimidazol-2-yl]-2-(2-pyridyl)ethyl](5-nitrobenzo[b]thiophen-2-yl)formamide] the figure was 228 to 231 °C. In turn, `Cn1c(-c2ccc(-n3ccnc3)cc2)cnc1[C@H](Cc1ccccn1)N(C=O)c1cc2cc(C#N)ccc2o1` [Example 25, (1S)-(5-Cyanobenzo[b]furan-2-yl)-N-[1-[5-[4-(1-imidazolyl)-phenyl]-1-methylimidazol-2-yl]-2-(2-pyridyl)ethyl]formamide] had a melting point of 174 to 176 °C. As to `Cn1c(-c2ccc(-n3ccnc3)cc2)cnc1[C@H](Cc1ccccn1)N(C=O)c1cc2cc(Cl)ccc2o1` [Example 49, (1S)-(5-Chlorobenzo[b]furan-2-yl)-N-[1-[5-[4-(1-imidazolyl)-phenyl]-1-methylimidazol-2-yl]-2-(2-pyridyl)ethyl]formamide], the melting point was in the range of 63 to 73 °C. Same read-out and setting: with `Cn1c(-c2ccc(N3CCOCC3)c(F)c2)cnc1[C@H](Cc1ccccn1)N(C=O)c1cc2cc(Cl)ccc2o1` [Example 19, (1S)-(5-Chlorobenzo[b]furan-2-yl)-N-[1-[5-(3-fluoro-4-morpholinophenyl)-1-methylimidazol-2-yl]-2-(2-pyridyl)ethyl]formamide] the figure was 134 to 135 °C.

Consider `Cn1c(-c2ccc(-c3ccccn3)cc2)cnc1[C@H](Cc1ccccn1)N(C=O)c1cc2cc(Cl)ccc2o1` [Example 36, (1S)-(5-Chlorobenzo[b]furan-2-yl)-N-[1-[1-methyl-5-[4-(2-pyridyl)-phenyl]imidazol-2-yl]-2-(2-pyridyl)ethyl]formamide], for which the melting point fell in the range of 175 to 180 °C. On the same count and under the same terms, with `Cn1c(-c2ccc(-c3cccnc3)cc2)cnc1[C@H](Cc1ccccn1)N(C=O)c1cc2cc(Cl)ccc2o1` [Example 34, (1S)-(5-Chlorobenzo[b]furan-2-yl)-N-[1-[1-methyl-5-[4-(3-pyridyl)-phenyl]imidazol-2-yl]-2-(2-pyridyl)ethyl]formamide] the figure was 158 to 160 °C.

Turning to `C=CC[C@@H]1/C=C(\C)C[C@H](C)C[C@H](OC)[C@H]2O[C@@](O)(C(=O)C(=O)N3CCCC[C@H]3C(=O)O[C@H](/C(C)=C/[C@@H]3CC[C@@H](O)[C@H](OC)C3)[C@H](C)[C@@H](O)CC1=O)[C@H](C)C[C@@H]2OC` [FK506], the “MST (day) (Median Survival Time)” value with rat cardiac allograft stood at 10 days. In turn, `Cn1c(-c2ccc(-n3ccnc3)cc2)cnc1[C@H](Cc1ccccn1)N(C=O)c1cc2ccc(Cl)cc2o1` [Example 11, (1S)-(6-Chlorobenzo[b]furan-2-yl)-N-[1-[5-[4-(1-imidazolyl)-phenyl]-1-methylimidazol-2-yl]-2-(2-pyridyl)ethyl]formamide] registered a melting point of 165 to 169 °C.

Take `Cn1ccnc1-c1ccc(-c2cnc([C@H](Cc3ccccn3)N(C=O)c3cc4ccccc4[nH]3)n2C)cc1` [Example 22, (1S)-(Indol-2-yl)-N-[1-[5-[4-(1-methylimidazol-2-yl)phenyl]-1-methylimidazol-2-yl]-2-(2-pyridyl)ethyl]formamide]: the melting point lay within 218 to 222 °C.

The compound `Cc1nccn1-c1ccc(-c2cnc([C@H](Cc3ccccn3)N(C=O)c3cc4ccccc4[nH]3)n2C)cc1` [Example 14, (1S)-(Indol-2-yl)-N-[1-[1-methyl-5-[4-(2-methylimidazol-1-yl)-phenyl]imidazol-2-yl]-2-(2-pyridyl)ethyl]formamide] yielded a melting point of 207 to 211 °C. Turning to `COc1ccc2oc(N(C=O)[C@@H](Cc3ccccn3)c3ncc(-c4ccc(-c5ccccc5)cc4)n3C)cc2c1` [Example 9, (1S)-N-[1-[5-(4-Biphenylyl)-1-methylimidazol-2-yl]-2-(2-pyridyl)-ethyl](5-methoxybenzo[b]furan-2-yl)formamide], the melting point lay in the range of 150 to 152 °C.

Regarding `CCn1c(-c2ccc(-n3ccnc3)cc2)cnc1[C@H](Cc1ccccn1)N(C=O)c1cc2cc(OC)ccc2o1.Cl.Cl.Cl`, the melting point fell in the range of 190 to 195 °C. `Cn1c(-c2ccc([N+](=O)[O-])cc2)cnc1[C@H](Cc1ccccn1)N(C=O)c1cc2cc(Cl)ccc2o1` [Example 12, (1S)-(5-Chlorobenzo[b]furan-2-yl)-N-[1-[1-methyl-5-(4-nitrophenyl)imidazol-2-yl]-2-(2-pyridyl)ethyl]formamide] came in with a melting point of 199 to 201 °C. The compound `COc1ccc2oc(N(C=O)[C@@H](Cc3ccccn3)c3ncc(-c4ccc(-n5ccnc5)cc4)n3C)cc2c1` [Example 51, (1S)-N-[1-[5-[4-(1-Imidazolyl)phenyl]-1-methylimidazol-2-yl]-2-(2-pyridyl)ethyl](5-methoxybenzo[b]furan-2-yl)formamide] came in with a melting point of 151 to 153 °C. The same measure, in the same setting: the result for `Cc1nccn1-c1ccc(-c2cnc([C@H](Cc3ccccn3)N(C=O)c3cc4ccccc4o3)n2C)cc1` [Example 15, (1S)-(Benzo[b]furan-2-yl)-N-[1-[1-methyl-5-[4-(2-methylimidazol-1-yl)phenyl]imidazol-2-yl]-2-(2-pyridyl)ethyl]formamide] reads 167 to 171 °C. As to `Cn1c(-c2ccc(-n3ccnc3)cc2)cnc1[C@H](Cc1ccccn1)N(C=O)c1cc2cc(C=O)ccc2o1` [Example 24, (1S)-(5-Formylbenzo[b]furan-2-yl)-N-[1-[5-[4-(1-imidazolyl)-phenyl]-1-methylimidazol-2-yl]-2-(2-pyridyl)ethyl]formamide], the melting point was in the range of 194 to 197 °C.

Consider `CCCn1c(-c2ccc(-n3ccnc3)cc2)cnc1[C@H](Cc1ccncc1)n1c(NC=O)cc2ccccc21` [Example 52, (1S)-N-[1-[5-[4-(1-Imidazolyl)phenyl]-1-propylimidazol-2-yl]-2-(4-pyridyl)ethyl](indol-2-yl) formamide], for which the melting point is 238 to 240 °C (dec.). For the compound `Cn1c(-c2ccc(-n3ccnc3)cc2)cnc1[C@H](Cc1ccccn1)N(C=O)c1cc2cc([N+](=O)[O-])ccc2o1` [Example 50, (1S)-N-[1-[5-[4-(1-Imidazolyl)phenyl]-1-methylimidazol-2-yl]-2-(2-pyridyl)ethyl](5-nitrobenzo[b]furan-2-yl)formamide], the melting point lay within 221 to 223 °C. On the same count and under the same terms, the result for `CCCn1c(-c2ccc(-n3ccnc3)cc2)cnc1[C@H](Cc1ccccn1)N(C=O)c1cc2cc(F)ccc2o1` [Example 56, (1S)-(5-Fluorobenzo[b]furan-2-yl)-N-[1-[5-[4-(1-imidazolyl)-phenyl]-1-propylimidazol-2-yl]-2-(2-pyridyl)ethyl]formamide] reads 77 to 81 °C.

By melting point is commonly meant the temperature, or range, at which the solid turns liquid.
